Source: publication PMC10439028, “SGLT5 is the renal transporter for 1,5-anhydroglucitol, a major player in two rare forms of neutropenia” (Cellular and Molecular Life Sciences: CMLS, 2023)

Legend:
mouse SGLT4 = target: T1, mouse SGLT4 (Mus musculus, UniProt Q8VDT1); assay: Inhibition of 50 µM mannose transport in HEK293T cells expressing mouse SGLT4; type: cell-based; settings: 10 mM 1,5-AG
T1 construct: expressed in transfected cells; host or cells: HEK293T
T1 sequence (Q8VDT1 1-685): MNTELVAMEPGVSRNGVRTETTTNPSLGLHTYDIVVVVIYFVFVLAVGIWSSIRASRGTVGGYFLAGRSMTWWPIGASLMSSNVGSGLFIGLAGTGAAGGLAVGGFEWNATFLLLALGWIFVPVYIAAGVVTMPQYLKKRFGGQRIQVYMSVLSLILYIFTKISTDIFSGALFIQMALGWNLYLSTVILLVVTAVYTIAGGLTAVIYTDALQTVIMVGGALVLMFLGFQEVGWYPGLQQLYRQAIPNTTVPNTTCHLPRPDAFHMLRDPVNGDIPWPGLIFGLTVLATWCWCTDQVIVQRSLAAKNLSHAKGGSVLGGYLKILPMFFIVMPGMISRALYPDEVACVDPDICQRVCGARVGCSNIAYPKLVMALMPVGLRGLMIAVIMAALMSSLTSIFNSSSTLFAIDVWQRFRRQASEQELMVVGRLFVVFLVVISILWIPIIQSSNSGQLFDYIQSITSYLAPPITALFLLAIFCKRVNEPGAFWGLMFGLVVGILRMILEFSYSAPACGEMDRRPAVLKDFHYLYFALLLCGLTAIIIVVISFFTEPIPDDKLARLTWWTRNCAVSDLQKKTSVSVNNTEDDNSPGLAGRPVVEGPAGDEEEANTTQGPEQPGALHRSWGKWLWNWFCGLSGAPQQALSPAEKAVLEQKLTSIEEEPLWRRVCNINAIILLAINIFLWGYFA
Experimental: Supplementary Fig. 4: Transport activities for 1,5-anhydroglucitol and mannose of recombinant mouse SGLT4 and SGLT5 isoforms measured in HEK293T cells.
Transport was measured in 24 well plates with 0.6x10^6 cells during 30 mins at 37°C in 5% CO2 in the presence of the indicated concentrations of 2-[1H+3H]-1,5-AG for both mSGLT4 (A) and mSGLT5 (B) and U-[12C+14C]-mannose (C) for mSGLT4. The saturation curves for the transport activities and the derived kinetic constants (Km and Vmax) are shown and indicate that mSGLT4 appears to be able to transport 1,5-anhydroglucitol but with a very low affinity (Km > 5 mM – panel A) compared to mannose (Km = 0.2 mM – panel C), while mSGLT5 transports efficiently 1,5-anhydroglucitol (Km = 0.5 mM – panel B). (D) 10 mM 1,5- […]
U-[12C+14C]-mannose) for both the human (hSGLT4) and the mouse (mSGLT4) isoforms of […]
(also on this page, place not known: Transport of (pmol/min/100 cells) Transport of (pmol/min/100 cells) 000 Transport of 1,5-AG (pmol/min/100 000 cells) 000 hSGLT4 mSGLT4 Mannose transport activity (% of the value at [12C+14C]-mannose) 50 µM mannose 1,5-AG)

hSGLT5 Ala522Val = target: T2, hSGLT5 Ala522Val (Homo sapiens, UniProt A0PJK1, A522V); assay: Inhibition of 10 µM 1,5-AG transport by SGLT5 variant Ala522Val; type: cell-based; settings: Fig. 5D
T2 construct: pUB83-hSGLT5-iso2 as well as the various SGLT5 mutants obtained were used to transduce HEK293T cells; expressed in transfected cells; host or cells: HEK293T, lentiviral transduction (pUB83)
T2 sequence (A0PJK1 1-596 A522V): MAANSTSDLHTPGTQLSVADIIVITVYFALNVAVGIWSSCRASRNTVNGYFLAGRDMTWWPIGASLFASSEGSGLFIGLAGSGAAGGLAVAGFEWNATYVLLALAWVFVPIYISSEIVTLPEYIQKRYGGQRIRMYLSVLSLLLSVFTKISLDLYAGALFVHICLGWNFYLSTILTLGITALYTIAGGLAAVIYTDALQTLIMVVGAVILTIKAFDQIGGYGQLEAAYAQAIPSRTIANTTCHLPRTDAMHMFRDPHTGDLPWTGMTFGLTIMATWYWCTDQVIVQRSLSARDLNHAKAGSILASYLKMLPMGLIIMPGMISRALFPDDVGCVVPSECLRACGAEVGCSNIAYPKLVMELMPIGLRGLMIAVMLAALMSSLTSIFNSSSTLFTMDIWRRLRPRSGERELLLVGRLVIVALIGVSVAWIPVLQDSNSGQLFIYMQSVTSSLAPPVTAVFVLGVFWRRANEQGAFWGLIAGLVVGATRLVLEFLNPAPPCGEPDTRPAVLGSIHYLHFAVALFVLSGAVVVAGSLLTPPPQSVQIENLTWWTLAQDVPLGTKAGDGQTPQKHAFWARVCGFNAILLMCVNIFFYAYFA
Experimental: The transport experiments to study the specificity of SGLT4 or SGLT5, were performed in the presence of 10 µM U-[^14C + ^12C]-mannose (for SGLT4) or 2-[^3H + ^1H]-1,5-AG (for SGLT5) and increasing concentrations of various sugars tested. The transport experiments to study the inhibition of empagliflozin, dapagliflozin or remogliflozin, on the transport of 1,5-AG by SGLT5 or its variants were performed in the presence of 10 µM 2-[^3H + ^1H]-1,5-AG and increasing concentrations of the various gliflozins tested.
SGLT5 mutants were created using the quick-change site directed mutagenesis method that enables effective mutagenesis without subcloning of the amplified PCR products. Complementary primer pairs carrying the desired replacements (Supplementary Table 3) were designed using an online tool (https://www.agilent.com/store/primerDesignProgram.jsp). The PCR protocol was carried out following the manufacturer instructions regarding the KOD HOT Start polymerase kit (TOYOBO™, Novagen). The amplified DNA was cleaned-up from the reactions constituents using the GeneJET PCR purification Kit (Thermo Scientific™) and the size of the DNA fragment were verified by DNA agarose-gel electrophoresis. […]

SMILES	inhibition of mouse SGLT4 transport activity (mouse SGLT4)	effect of mutation on concentration of empagliflozin needed to inhibit SGLT5 (hSGLT5 Ala522Val)
OC[C@H]1OC[C@H](O)[C@@H](O)[C@@H]1O [1,5-AG, 1,5-anhydroglucitol]	barely inhibited	–
OC[C@H]1O[C@@H](c2ccc(Cl)c(Cc3ccc(O[C@H]4CCOC4)cc3)c2)[C@H](O)[C@@H](O)[C@@H]1O [empagliflozin]	–	did not affect significantly
